Here are results for 24 compounds from the SangsterLogP compilation.

The nature of the data set: method code SF-AS, from DOI: 10.1002/ardp.19893220504, PMID: 2569302. To be noted: pH 7.4.

As a reminder, the logD is lipophilicity at a set pH, counting ionised and neutral species. Low values mean a more hydrophilic compound, high ones a more lipophilic compound.

`COc1ccc2c(=O)c(C)c(-c3ccc(Cl)cc3)oc2c1CN1CCOCC1`: the log distribution coefficient (logD) came to 3.94. The same measure for `CCN(CC)Cc1c(OC)ccc2c(=O)c(C)c(-c3ccc(C)cc3)oc12`: 2.46. The same measure for `COc1ccc2c(=O)c(C)c(-c3ccccc3)oc2c1CN(C)C`: 1.93. In the case of `CCN(CC)Cc1c(OC)ccc2c(=O)c(C)c(-c3ccc(Cl)cc3)oc12` it was 2.66. For `COc1ccc2c(=O)c(C)c(-c3ccc(F)cc3)oc2c1CN(C)C`, the pH-dependent lipophilicity (logD) is 1.97. In turn, `COc1ccc2c(=O)c(C)c(-c3ccc(Cl)cc3)oc2c1CN(C)C` displayed a pH-dependent lipophilicity (logD) of 2.62.

As to `CCN(CC)Cc1c(OC)ccc2c(=O)c(C)c(-c3ccccc3)oc12`, the logD turned out to be 1.99. In the case of `COc1ccc2c(=O)c(C)c(-c3ccc(F)cc3)oc2c1CN1CCOCC1` it was 3.26; in that of `COc1ccc2c(=O)c(C)c(-c3ccc(F)cc3)oc2c1CN1CCCC1`, 2.13; in that of `COc1ccc2c(=O)c(C)c(-c3ccc(C)cc3)oc2c1CN1CCCCC1`, 3.13. In the case of `CCN(CC)Cc1c(OC)ccc2c(=O)c(C)c(-c3ccc(F)cc3)oc12` it was 1.99; in that of `COc1ccc2c(=O)c(C)c(-c3ccc(C)cc3)oc2c1CN1CCOCC1`, 3.71. `COc1ccc2c(=O)c(C)c(-c3ccc([N+](=O)[O-])cc3)oc2c1CN1CCCCC1` returned a logD of 2.53.

`COc1ccc2c(=O)c(C)c(-c3ccc(Cl)cc3)oc2c1CN1CCCCC1` registered a logD of 3.46. As for `COc1ccc2c(=O)c(C)c(-c3ccc(Cl)cc3)oc2c1CN1CCCC1`, the log distribution coefficient (logD) stood at 2.75. In the case of `COc1ccc2c(=O)c(C)c(-c3ccccc3)oc2c1CN1CCCCC1` it was 2.63.

For the compound `COc1ccc2c(=O)c(C)c(-c3ccc([N+](=O)[O-])cc3)oc2c1CN(C)C`, the logD was determined as 1.73. In the case of `COc1ccc2c(=O)c(C)c(-c3ccc([N+](=O)[O-])cc3)oc2c1CN1CCOCC1` it was 3.02; in that of `COc1ccc2c(=O)c(C)c(-c3ccccc3)oc2c1CN1CCOCC1`, 3.25; in that of `COc1ccc2c(=O)c(C)c(-c3ccc(C)cc3)oc2c1CN1CCCC1`, 2.5.

For the compound `COc1ccc2c(=O)c(C)c(-c3ccc(F)cc3)oc2c1CN1CCCCC1`, the logD was 2.71.

The compound `COc1ccc2c(=O)c(C)c(-c3ccc([N+](=O)[O-])cc3)oc2c1CN1CCCC1` registered a logD of 1.83. The same measure for `CCN(CC)Cc1c(OC)ccc2c(=O)c(C)c(-c3ccc([N+](=O)[O-])cc3)oc12`: 1.7; for `COc1ccc2c(=O)c(C)c(-c3ccc(C)cc3)oc2c1CN(C)C`: 2.41.
